Assay results: patent US6613961B1, “Plants capable of metabolizing drugs and use thereof” (priority 1998, dated 2003)

Experiments:
Human CYP1A1 = biological target: T1, Human CYP1A1 (Homo sapiens, UniProt P04798); test: Metabolism of herbicides in microsomes of recombinant yeast expressing human P450; assay type: in vitro ADME
T1 construct: purchased Sumitomo Chemical; host or cells: recombinant yeast, microsomal fraction
T1 sequence (P04798 1-512): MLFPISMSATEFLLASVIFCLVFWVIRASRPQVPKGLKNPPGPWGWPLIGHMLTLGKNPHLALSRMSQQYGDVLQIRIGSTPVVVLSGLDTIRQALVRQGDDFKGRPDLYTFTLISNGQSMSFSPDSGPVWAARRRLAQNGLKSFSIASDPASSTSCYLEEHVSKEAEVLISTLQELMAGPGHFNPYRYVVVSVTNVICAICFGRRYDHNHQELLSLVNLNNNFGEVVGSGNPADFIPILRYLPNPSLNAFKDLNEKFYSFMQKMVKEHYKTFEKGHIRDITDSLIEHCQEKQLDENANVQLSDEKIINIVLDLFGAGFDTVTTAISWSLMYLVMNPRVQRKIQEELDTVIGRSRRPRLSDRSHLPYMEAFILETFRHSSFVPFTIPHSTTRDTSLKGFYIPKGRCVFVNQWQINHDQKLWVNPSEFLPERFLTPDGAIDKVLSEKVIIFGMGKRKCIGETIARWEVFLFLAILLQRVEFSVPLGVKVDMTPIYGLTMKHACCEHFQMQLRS

Human CYP2B6 = biological target: T2, Human CYP2B6 (Homo sapiens, UniProt P20813); test: as above
T2 sequence (P20813 1-491): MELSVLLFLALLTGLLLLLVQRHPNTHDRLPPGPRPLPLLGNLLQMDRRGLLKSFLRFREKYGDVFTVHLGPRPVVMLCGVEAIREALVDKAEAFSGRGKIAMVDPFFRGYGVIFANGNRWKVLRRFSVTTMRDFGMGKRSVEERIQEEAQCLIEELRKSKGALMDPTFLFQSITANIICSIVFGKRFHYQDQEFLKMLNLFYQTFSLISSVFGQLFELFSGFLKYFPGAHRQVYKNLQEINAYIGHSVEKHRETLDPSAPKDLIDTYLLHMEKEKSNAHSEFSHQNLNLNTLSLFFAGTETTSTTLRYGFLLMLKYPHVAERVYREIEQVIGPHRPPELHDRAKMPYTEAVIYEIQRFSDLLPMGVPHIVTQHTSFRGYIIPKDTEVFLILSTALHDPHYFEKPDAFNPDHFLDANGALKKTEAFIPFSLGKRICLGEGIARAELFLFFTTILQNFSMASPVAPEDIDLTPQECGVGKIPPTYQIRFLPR
Description: The reaction was carried out in a range of temperature suitable for an organism from which a p450 molecular species is derived (for example, 37° C. for human P450), by mixing with air while vigorously shaking, within a period during which an enzyme is not inactivated (for example, for 10 to 60 min).
From the height of the peak, a metabolized amount can be obtained.
To 0.1 M potassium phosphate buffer (pH 7.4), the microsomal fraction prepared from each of yeast strains respectively expressing one of 11 human P450 molecular species (obtained from Sumitomo Chemical) was added so that the amount of the p450 would be 25 pmol. Furthermore, 0.5 mM NADPH, 5 mM glucose 6 phosphate, 1 U/ml glucose 6 phosphate dehydrogenase, and 0.1 mM each of the following herbicides (those available in the market were used) were added at the final concentrations thereto to make the total volume of 100 μl. The reaction mixture was shaken at 37° C. for 60 min, and an organic solvent was added thereto for the extraction. The extract was applied to the high performance liquid chromatography, and the metabolite was measured.

[1] = system: microsomal fraction of Control plants; test: 7-ethoxyresorufin O-deethylation activity using a microsomal fraction; assay type: biochemical, Solanum tuberosum cv. MayQueen
Description: (§1) A reaction was initiated by adding 7-ethoxyresorufin to the concentration of 10 μM to a reaction solution containing 0.1 M potassium phosphate buffer (pH 7.4), 3 mM NADPH, and 1 mg/ml microsomal fractions at the final concentrations. The mixture was incubated at 37° C. for 30 min, ice-cooled acetone was added thereto, and allowed to stand on ice for 10 min. The supernatant was measured using the fluorometer (excitation wavelength of 550 nm, and emission of 586 nm).
(§2) Inhibition of activity by addition of carbon monoxide and absence of NADPH indicated P450-dependency. On the other hand, an increased activity was not observed in S1972 or S1974. […] In the table, “EROD activity” of (a) indicates 7-ethoxyresorufin O-deethylase activity (pmol/min/mg of protein) and means±standard deviations in three independent experiments. In (b), the values indicate the activities in the presence of carbon monoxide. In (c), the values indicate the activities in the absence of NADPH.

[2] = biological target: T3, microsomal fraction of S1965 (human CYP1A1) (Homo sapiens, UniProt P04798); test: as above; assay type: biochemical
T3 construct: expressed in transfected cells; host or cells: transgenic potato (Solanum tuberosum cv. MayQueen) line S1965, plasmid pUHA1, microsomal fraction
T3 sequence (P04798 1-512): T1 sequence (P04798 1-512)
Description: as §1, §2

[3] = biological target: T4, microsomal fraction of S1972 (human CYP2B6) (Homo sapiens, UniProt P20813); test: as above; assay type: biochemical
T4 construct: expressed in transfected cells; host or cells: transgenic potato (Solanum tuberosum cv. MayQueen) line S1972, plasmid pUHB6, microsomal fraction
Description: as §1, §2

[4] = biological target: T5, microsomal fraction of T1977 (human CYP1A1, CYP2B6, CYP2C19) (Homo sapiens, UniProt P04798); test: as above; assay type: biochemical
T5 construct: expressed in transfected cells; host or cells: transgenic potato (Solanum tuberosum cv. MayQueen) line T1977, plasmid pIKBAC, microsomal fraction
T5 sequence (P04798 1-512): T1 sequence (P04798 1-512)
Description: as §1, §2

[5] = biological target: T6, microsomal fraction of S1974 (human CYP2C19) (Homo sapiens, UniProt P33261); test: as above; assay type: biochemical
T6 construct: expressed in transfected cells; host or cells: transgenic potato (Solanum tuberosum cv. MayQueen) line S1974, plasmid pUHC19, microsomal fraction
Description: as §1, §2

S1974 (human CYP2C19) = test: Herbicide tolerance assay for transformants; assay type: in vivo, Solanum tuberosum cv. MayQueen; settings: acetochlor 20 μmol, atrazine 1.2 μmol, metolachlor 30 μmol dispersed
Excerpt: Then, herbicides were dispersed.

non-transformed MayQueen = test: Assay for herbicide resistance, non-transformed potato; assay type: in vivo; set-up: key: 1: alomost dead; 2: severely inhibited growth; 3: slightly inferior growth; 4: the same growth as that when herbicide was not dispersed; settings: 14 days after dispersal
Excerpt: 4, the same growth as that when herbicide was not dispersed.

[6] = system: seeds of Nipponbare into which the gene was not introduced; test: Germination assay for herbicide resistance, non-introduced rice seeds; assay type: in vivo, rice (Nipponbare); settings: […] metolachlor, […] alachlor, 15 μM triflurarin; after about 4 to 7 days
Human CYP2C9 = Human CYP2C9 (Homo sapiens, UniProt P11712); test: Herbicide metabolism by human P450 molecular species (microsomal fraction); assay type: in vitro ADME
[7] = system: leaves of potato individuals expressing three types of P450; test: 7-ethoxycoumarin O-deethylation activity in leaves of kanamycin-resistant individuals; assay type: in vivo, Solanum tuberosum cv. MayQueen; settings: leaves cultured with 7-ethoxycoumarin for 3 days
Description: Leaves of the kanamycin-resistant individuals (0.1 g) were cultured in 5 ml of a liquid medium containing 2% sucrose with 100 μl of 20 mM 7-ethoxycoumarin for 3 days. Then, the leaves were crushed in 500 μl of 0.1 M potassium phosphate buffer (pH 7.4), and chloroform was added to the supernatant and mixed. To the chloroform layer, 0.01 N NaOH/0.1 M NaCl was added, and measurement was performed at excitation wavelength of 366 nm and at emission of 452 nm with the Hitachi fluorometer. […] Each of CYP1A1-expressing individual S1965, and CYP2B6-expressing individual S1972 was selected in the same manner.

[8] = 10 μM 7-ethoxyresorufin, means±standard deviations in three independent experiments

T6 sequence (P33261 whole entry): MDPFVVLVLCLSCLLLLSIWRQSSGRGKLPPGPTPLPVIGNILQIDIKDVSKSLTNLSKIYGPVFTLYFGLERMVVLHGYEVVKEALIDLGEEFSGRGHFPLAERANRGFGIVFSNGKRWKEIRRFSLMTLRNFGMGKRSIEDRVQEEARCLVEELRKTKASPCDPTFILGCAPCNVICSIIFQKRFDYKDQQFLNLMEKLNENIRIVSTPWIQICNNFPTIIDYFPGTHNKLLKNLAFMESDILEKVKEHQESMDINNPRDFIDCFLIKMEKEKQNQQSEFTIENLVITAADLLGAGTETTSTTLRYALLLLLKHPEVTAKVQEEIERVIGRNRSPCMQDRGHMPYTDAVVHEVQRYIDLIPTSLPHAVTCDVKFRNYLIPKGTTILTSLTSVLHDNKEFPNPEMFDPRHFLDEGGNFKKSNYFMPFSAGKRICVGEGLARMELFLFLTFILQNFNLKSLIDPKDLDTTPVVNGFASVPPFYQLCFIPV
Sequence of Human CYP2C9 (P11712 whole entry): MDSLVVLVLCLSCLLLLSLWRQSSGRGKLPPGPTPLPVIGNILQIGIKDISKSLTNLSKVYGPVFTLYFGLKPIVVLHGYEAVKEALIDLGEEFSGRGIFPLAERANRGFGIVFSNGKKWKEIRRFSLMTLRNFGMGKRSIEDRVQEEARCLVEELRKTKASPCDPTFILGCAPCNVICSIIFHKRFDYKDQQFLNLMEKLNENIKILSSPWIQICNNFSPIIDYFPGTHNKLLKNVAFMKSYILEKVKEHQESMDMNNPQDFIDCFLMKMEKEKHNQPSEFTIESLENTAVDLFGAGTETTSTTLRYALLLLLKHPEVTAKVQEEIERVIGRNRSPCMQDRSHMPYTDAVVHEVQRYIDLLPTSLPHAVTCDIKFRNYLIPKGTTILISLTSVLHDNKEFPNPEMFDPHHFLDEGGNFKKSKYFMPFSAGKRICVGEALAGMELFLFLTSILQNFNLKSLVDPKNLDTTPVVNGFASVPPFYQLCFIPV

Cc1ccc(NC(=O)N(C)C)cc1Cl [chlorotoluron]
metabolic reaction confirmed (Human CYP1A1): N-demethylation, ring hydroxylation

CCOC1Oc2ccc(OS(C)(=O)=O)cc2C1(C)C (stereo not shown) [ethofumesate]
metabolic reaction confirmed (Human CYP2B6): O-deethylation, hydroxylation

CCOc1ccc2nc3ccc(=O)cc-3oc2c1 [7-ethoxyresorufin]
-NADPH (Inhibition rate) [1]: 82%
CO (Inhibition rate) [1]: 45%
EROD activity [1, 8]: 0.11 ± 0.01 pmol/min/mg of protein
EROD activity in the absence of NADPH ([1]; -NADPH): 0.02 pmol/min/mg of protein
EROD activity in the presence of carbon monoxide ([1]; CO): 0.06 pmol/min/mg of protein
7-ethoxyresorufin O-deethylation activity, times higher than the controls [2]: ~53 times
-NADPH (Inhibition rate) [2]: 99%
CO (Inhibition rate) [2]: 77%
EROD activity [2, 8]: 5.78 ± 0.51 pmol/min/mg of protein
EROD activity in the absence of NADPH ([2]; -NADPH): 0.06 pmol/min/mg of protein
EROD activity in the presence of carbon monoxide ([2]; CO): 1.33 pmol/min/mg of protein
increased 7-ethoxyresorufin O-deethylation activity [3]: not observed
EROD activity [3, 8]: 0.12 ± 0.03 pmol/min/mg of protein
7-ethoxyresorufin O-deethylation activity, times higher than the controls [4]: about 27 times
-NADPH (Inhibition rate) [4]: 99%
CO (Inhibition rate) [4]: 76%
EROD activity [4, 8]: 2.92 ± 0.72 pmol/min/mg of protein
EROD activity in the absence of NADPH ([4]; -NADPH): 0.02 pmol/min/mg of protein
EROD activity in the presence of carbon monoxide ([4]; CO): 0.69 pmol/min/mg of protein
increased 7-ethoxyresorufin O-deethylation activity [5]: not observed
EROD activity [5, 8]: 0.14 ± 0.03 pmol/min/mg of protein

CCOCN(C(=O)CCl)c1c(C)cccc1CC [acetochlor]
resistance of the transformant to the herbicide (S1974 (human CYP2C19)): strong resistance
Resistance to herbicide (non-transformed MayQueen; Acetochlor 5 μmol/pot): 2
Resistance to herbicide (non-transformed MayQueen; Acetochlor 10 μmol/pot): 2
Resistance to herbicide (non-transformed MayQueen; Acetochlor 15 μmol/pot): 1

CCc1cccc(CC)c1N(COC)C(=O)CCl [alachlor]
metabolic reaction confirmed (Human CYP2B6): O-deethylation, O-demethylation
Germination of seeds [6]: inhibited

CNC(=O)N(C)c1nc2ccccc2s1 [methabenzthiazuron]
metabolic reaction confirmed (Human CYP1A1): N-demethylation, ring hydroxylation

CO/N=C(/C)c1cccc(Oc2nc(OC)cc(OC)n2)c1C(=O)OC [pyriminobac-methyl]
metabolic reaction confirmed (Human CYP1A1): hydroxylation

COc1cc(OC)nc(NC(=O)NS(=O)(=O)c2c(Cl)nc3ccccn23)n1 [imazosulfuron]
metabolic reaction confirmed (Human CYP2C9): ring hydroxylation

CCCN(CCC)c1c([N+](=O)[O-])cc(C(F)(F)F)cc1[N+](=O)[O-] [triflurarin]
metabolic reaction confirmed (Human CYP2B6): O-demethylation
Germination of seeds [6]: inhibited

CCNc1nc(Cl)nc(NC(C)C)n1 [atrazine]
resistance of the transformant to the herbicide (S1974 (human CYP2C19)): strong resistance
metabolic reaction confirmed (Human CYP1A1): N-deethylation, N-deisopropylation

CCS(=O)(=O)Oc1ccc2c(c1)C(C)(C)CO2 [benfuresate]
metabolic reaction confirmed (Human CYP2B6): O-deethylation, hydroxylation

CCOc1ccc2ccc(=O)oc2c1 [7-ethoxycoumarin]
7-ethoxycoumarin O-deethylation activity ([7]; individual T1977): higher activity than the control
7-ethoxycoumarin O-deethylation activity ([7]; individual T1979): higher activity than the control

CNc1cnn(-c2cccc(C(F)(F)F)c2)c(=O)c1Cl [norflurazon]
metabolic reaction confirmed (Human CYP1A1): N-demethylation
